Laboratory results reported in patent publication US8222416B2, “Azaindole glucokinase activators” (Hoffmann-La Roche Inc., priority 2009, dated 2012).

These compounds were tested against T1, Recombinant human liver GK1 (GST-GK) (Homo sapiens, UniProt P35557) (assay: In vitro glucokinase activity assay (G6PDH-coupled, NADH, OD340)). Conditions: at 30 μM.
T1 construct: made in house; host or cells: E. coli
T1 sequence (P35557 1-466 isoform P35557-2): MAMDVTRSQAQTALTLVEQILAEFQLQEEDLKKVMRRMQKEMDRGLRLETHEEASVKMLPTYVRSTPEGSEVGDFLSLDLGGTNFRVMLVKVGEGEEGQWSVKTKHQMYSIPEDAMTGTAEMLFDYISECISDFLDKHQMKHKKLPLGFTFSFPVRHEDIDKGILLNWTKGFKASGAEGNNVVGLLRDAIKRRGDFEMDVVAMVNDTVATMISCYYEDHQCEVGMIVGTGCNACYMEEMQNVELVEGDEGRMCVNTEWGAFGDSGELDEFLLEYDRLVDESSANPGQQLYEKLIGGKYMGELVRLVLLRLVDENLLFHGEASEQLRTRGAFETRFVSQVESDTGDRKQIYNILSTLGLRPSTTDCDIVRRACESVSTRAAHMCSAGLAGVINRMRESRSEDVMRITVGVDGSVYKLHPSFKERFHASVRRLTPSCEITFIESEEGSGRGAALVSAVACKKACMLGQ
Assay type: biochemical
Description: Glucokinase In Vitro Assay Protocol: Glucokinase (GK) was assayed by coupling the production of glucose-6-phosphate to the generation of NADH with glucose-6-phosphate dehydrogenase (G6PDH, 0.75-1 kunits/mg; Boehringer Mannheim, Indianapolis, Ind.) from Leuconostoc mesenteroides as the coupling enzyme (Scheme 2).
Recombinant human liver GK1 was expressed in E. coli as a glutathione S-transferase fusion protein (GST-GK) [Liang et al, 1995] and was purified by chromatography over a glutathione-Sepharose 4B affinity column using the procedure provided by the manufacturer (Amersham Pharmacia Biotech, Piscataway, N.J.).
The assay was conducted at 30° C. in a flat bottom 96-well tissue culture plate from Costar (Cambridge, Mass.) with a final incubation volume of 120 μL. The incubation reaction contained the following: 25 mM Hepes buffer (pH 7.1), 25 mM KCl, 5 mM D-glucose, 1 mM ATP, 1.8 mM NAD, 2 mM MgCl2, 1 μM sorbitol-6-phosphate, 1 mM dithiothreitol, test drug or 10% dimethylsulfoxide, ˜7 units/ml G6PDH, and GK (see below). All organic reagents were >98% pure and were from Boehringer Mannheim with the exceptions of D-glucose and Hepes which were from Sigma Chemical Co, St Louis, Mo. Test compounds were dissolved in dimethylsulfoxide and were added to the incubation reaction minus GST-GK in a volume of 12 μL to yield a final dimethylsulfoxide concentration of 10%. This mix was pre-incubated in the temperature controlled chamber of a SPECTRAmax 250 microplate spectrophotometer (Molecular Devices Corporation, Sunnyvale, Calif.) for 10 minutes to allow temperature equilibrium and then the reaction was started by the addition of 20 μL GST-GK.
After addition of enzyme, the increase in optical density (OD) at 340 nm was monitored spectrophotometrically to determine the rate of change (OD340 per min). The GK activity (OD340/min) in control wells (10% dimethylsulfoxide minus GK activators) was compared with the activity in wells containing test GK activators, and the concentration of activator that produced a 50% increase in the activity of GK, i.e., the SC1.5, was calculated.

Row | fold activation of GK | Structure (SMILES)
1 | 1.4 fold at 30 | COc1cnc2[nH]c(C(CC3CCCC3)c3ccc(C(C)(C)O)cc3)cc2c1 (centres unmarked) [Example 35, 2-{4-[2-Cyclopentyl-1-(5-methoxy-1H-pyrrolo[2,3-b]pyridin-2-yl)-ethyl]-phenyl}-propan-2-ol]
2 | 1.4 fold at 30 | CCS(=O)(=O)c1cnc2[nH]c(C(CC3CCCC3)c3ccc(S(C)(=O)=O)cc3)cc2c1 (centres unmarked) [Example 125, 2-[2-Cyclopentyl-1-(4-methanesulfonyl-phenyl)-ethyl]-5-ethanesulfonyl-1H-pyrrolo[2,3-b]pyridine]

Same assay, conditions: concentration of activator that produced a 50% increase in the activity of GK; 5 mM D-glucose, 30° C.

Row | Structure (SMILES) | SC1.5
3 | COc1ccc(C(CC2CCCC2)c2cc3cccnc3[nH]2)cn1 (centres unmarked) [Example 61] | 3.0 µM
4 | CC(O)c1ccc(C(CC2CCCC2)c2cc3cccnc3[nH]2)cc1 (centres unmarked) [Example 64, 1-{4-[2-Cyclopentyl-1-(1H-pyrrolo[2,3-b]pyridin-2-yl)-ethyl]-phenyl}-ethanol] | 2.2 µM
5 | CS(=O)(=O)c1ccc(C(O)(CC2CCCC2)c2cc3cc(F)cnc3[nH]2)cc1 (single isomer, unassigned) [Example 49, 2-Cyclopentyl-1-(5-fluoro-1H-pyrrolo[2,3-b]pyridin-2-yl)-1-(4-methanesulfonyl-phenyl)-ethanol] | 0.354 µM
6 | CS(=O)(=O)c1ccc(/C(=C\C2CCC2)c2cc3cc(F)cnc3[nH]2)cc1 [Example 46, 2-[(E)-2-Cyclobutyl-1-(4-methanesulfonyl-phenyl)-vinyl]-5-fluoro-1H-pyrrolo[2,3-b]pyridine] | 0.028 µM
7 | CS(=O)(=O)c1ccc(C(O)(CC2CCCC2)c2cc3cc(F)cnc3[nH]2)cc1 (centres unmarked) [Example 48, 2-Cyclopentyl-1-(5-fluoro-1H-pyrrolo[2,3-b]pyridin-2-yl)-1-(4-methanesulfonyl-phenyl)-ethanol] | 0.654 µM
8 | CC(C)(O)c1ccc(C(CC2CCCC2)c2cc3cc(C(=O)O)cnc3[nH]2)cc1F (centres unmarked) [Example 57, 2-{2-Cyclopentyl-1-[3-fluoro-4-(1-hydroxy-1-methyl-ethyl)-phenyl]-ethyl}-1H-pyrrolo[2,3-b]pyridin-5-carboxylic acid] | 22.3 µM
9 | N#Cc1ccc([C@@H](CC2CCCC2)c2cc3cc(F)cnc3[nH]2)cc1 (single isomer, unassigned) [Example 51] | 0.343 µM
10 | CCC(O)(CC)c1ccc([C@@H](CC2CCCC2)c2cc3cccnc3[nH]2)cc1 (single isomer, unassigned) [Example 84] | 5.9 µM
11 | CC(=O)c1cccc(C(CC(C)C)c2cc3cccnc3[nH]2)c1 (centres unmarked) [Example 135, 1-{3-[3-Methyl-1-(1H-pyrrolo[2,3-b]pyridin-2-yl)-butyl]-phenyl}-ethanone] | 9.6 µM
12 | CC(C)(O)c1ccc(C(CC2CCCC2)c2cc3cc(F)cnc3[nH]2)cc1 (centres unmarked) [Example 119, 2-{4-[2-Cyclopentyl-1-(5-fluoro-1H-pyrrolo[2,3-b]pyridin-2-yl)-ethyl]-phenyl}-propan-2-ol] | 0.78 µM
13 | CC(C)CC(c1cccc(N(C)C)c1)c1cc2cccnc2[nH]1 (centres unmarked) [Example 136, N,N-Dimethyl-3-(3-methyl-1-(1H-pyrrolo[2,3-b]pyridine-2-yl)butyl)benzenamine] | 14.3 µM
14 | N#Cc1ccc(C(CC2CCCC2)c2cc3cccnc3[nH]2)cc1 (centres unmarked) [Example 43, 4-[2-Cyclopentyl-1-(1H-pyrrolo[2,3-b]pyridin-2-yl)-ethyl]-benzonitrile] | 1.4 µM
15 | O=S(=O)(CCN1CCOCC1)c1ccc(C(CC2CCCC2)c2cc3cccnc3[nH]2)cc1 (centres unmarked) [Example 93, 2-{2-Cyclopentyl-1-[4-(2-morpholin-4-yl-ethanesulfonyl)-phenyl]-ethyl}-1H-pyrrolo[2,3-b]pyridine] | 1.7 µM
16 | CN(C)CCS(=O)(=O)c1ccc(C(CC2CCCC2)c2cc3cccnc3[nH]2)cc1 (centres unmarked) [Example 92, (2-{4-[2-Cyclopentyl-1-(1H-pyrrolo[2,3-b]pyridin-2-yl)-ethyl]-benzenesulfonyl}-ethyl)-dimethyl-amine] | 1.1 µM
17 | COc1ccc2cc(C(CC3CCCC3)c3ccc(S(C)(=O)=O)cc3)[nH]c2n1 (centres unmarked) [Example 113, 2-[2-Cyclopentyl-1-(4-methanesulfonyl-phenyl)-ethyl]-6-methoxy-1H-pyrrolo[2,3-b]pyridine] | 1.8 µM
18 | CC(C)(O)c1ccc(C(CC2CCOCC2)c2cc3cc(F)cnc3[nH]2)cc1F (centres unmarked) [Example 97, 2-{2-Fluoro-4-[1-(5-fluoro-1H-pyrrolo[2,3-b]pyridin-2-yl)-2-(tetrahydro-pyran-4-yl)-ethyl]-phenyl}-propan-2-ol] | 2.2 µM
19 | CN(C)c1ccc(C(CC2CCCC2)c2cc3cccnc3[nH]2)cc1 (centres unmarked) [Example 65, {4-[2-Cyclopentyl-1-(1H-pyrrolo[2,3-b]pyridin-2-yl)-ethyl]-phenyl}-dimethyl-amine] | 2.8 µM
20 | CC(C)C[C@H](c1ccc(S(=O)(=O)CCO)cc1)c1cc2cc(F)cnc2[nH]1 (single isomer, unassigned) [Example 102] | 0.427 µM
21 | CC(C)(O)c1ccc(C(CC2CCCC2)c2cc3cccnc3[nH]2)cc1 (centres unmarked) [Example 81, 2-{4-[2-Cyclopentyl-1-(1H-pyrrolo[2,3-b]pyridin-2-yl)-ethyl]-phenyl}-propan-2-ol] | 2.3 µM

Further lines, results first:

Row | SC1.5 | Structure (SMILES)
22 | 2.0 µM | CN(C)C(=O)COc1cnc2[nH]c(C(CC3CCCC3)c3ccc(S(C)(=O)=O)cc3)cc2c1 (centres unmarked) [Example 13, 2-{2-[2-Cyclopentyl-1-(4-methanesulfonyl-phenyl)-ethyl]-1H-pyrrolo[2,3-b]pyridin-5-yloxy}-N,N-dimethyl-acetamide]
23 | 0.201 µM | CC(C)C[C@H](c1ccc(S(C)(=O)=O)cc1)c1cc2cc(F)cnc2[nH]1 (single isomer, unassigned) [Example 100]
24 | 0.742 µM | CN(C)C(=O)COc1cnc2[nH]c([C@H](CC3CCCC3)c3ccc(S(C)(=O)=O)cc3)cc2c1 (single isomer, unassigned) [Example 14]
25 | 9.0 µM | CN(C)CCc1cnc2[nH]c(C(CC3CCCC3)c3ccc(S(C)(=O)=O)cc3)cc2c1 (centres unmarked) [Example 40, (2-{2-[2-Cyclopentyl-1-(4-methanesulfonyl-phenyl)-ethyl]-1H-pyrrolo[2,3-b]pyridin-5-yl}-ethyl)-dimethyl-amine]
26 | 1.2 µM | COC(=O)c1cnc2[nH]c(C(CC3CCCC3)c3ccc(S(C)(=O)=O)cc3)cc2c1 (centres unmarked) [Example 54, 2-[2-Cyclopentyl-1-(4-methanesulfonyl-phenyl)-ethyl]-1H-pyrrolo[2,3-b]pyridin-5-carboxylic acid methyl ester]
27 | 2.0 µM | COc1cnc2[nH]c(C(CC3CCCO3)c3ccc(S(C)(=O)=O)cc3)cc2c1 (single isomer, unassigned) [Example 24, 2-[1-(4-Methanesulfonyl-phenyl)-2-(tetrahydro-furan-2-yl)-ethyl]-5-methoxy-1H-pyrrolo[2,3-b]pyridine]
28 | 25.6 µM | CS(=O)(=O)c1ccc(C(CC2CCCC2)c2cc3cc(C(O)CO)cnc3[nH]2)cc1 (centres unmarked) [Example 7, 1-{2-[2-Cyclopentyl-1-(4-methanesulfonyl-phenyl)-ethyl]-1H-pyrrolo[2,3-b]pyridin-5-yl}-ethane-1,2-diol]
29 | 1.9 µM | CNC(=O)c1cnc2[nH]c(C(CC3CCCC3)c3ccc(S(C)(=O)=O)cc3)cc2c1 (centres unmarked) [Example 5, 2-[2-Cyclopentyl-1-(4-methanesulfonyl-phenyl)-ethyl]-1H-pyrrolo[2,3-b]pyridin-5-carboxylic acid methylamide]
